Test results taken from patent US5504191A, “Human cancer inhibitory pentapeptide methyl esters” (priority 1994, dated 1996).

Legend:
SF-295 = assay: Human cancer cell line growth inhibition, CNS SF-295; format: cell-based; settings: CNS SF-295, 48 hrs
Source text: (§1) Current research in the control of cancer in the United States is coordinated by the National Cancer Institute (NCI). To determine whether a substance has anti-cancer properties, the NCI has established a systematic protocol. […] The protocol, and the established statistical means for analyzing the results obtained by the standardized testing are fully described in the literature. See: Boyd, Dr. Michael R., Principles & Practice of Oncology, PPO Updates, Volume 3, Number 10, October 1989, for an in depth description of the testing protocol; and Paull K. D., "Display and Analysis of Patterns of Differential Activity of Drugs Against Human Tumor Cell Lines; Development of Mean Graph and COMPARE Algorithm" Journal of the National Cancer Institute Reports, Vol. 81, No. 14, Page 1088, Jul. 14, 1989 for a description of the methods of statistical analysis employed to evaluate the test results. Both of these references are incorporated herein by this reference thereto.
(§2) ED50 (P388) and GI50 (HTCL) identify the drug dose which reduces the percent tumor/cell growth to 50%. There is no mathematical difference between ED50 and GI50, both of which are calculated using the same formula. The only difference is historical usage.
(§3) TGI, means "Total Growth Inhibition" and identifies the drug dose needed to yield zero percent growth, i.e. there are just as many cells at the end of the experiment as were present at the beginning. Whether just as many cells were killed as were produced (steady state), or no growth occurred (total inhibition) cannot be distinguished.
(§4) LC50, means "Lethal Concentration 50%", and identifies the drug concentration which reduces to one-half of the cells originally present at the beginning of the experiment.
(§5) Each drug is tested at five (5) doses: 100 - 10 - 1 - 0.1 - 0.01 - μg/ml. Percent Growths are calculated for each dose. The two (or three) doses with growth values above, below, (or near to) 50% growth are used to calculate the ED50 /GI50 values using a linear regression computation. If no dose yields a growth value under 50%, the results are expressed as: ED50 >(highest dose). If no dose yields growth higher than 50% growth, then ED50 <(lowest dose). Similar calculations are performed for the TGI at 0% growth, and at -50% growth for the LC50.
(§6) At the start of each experiment, cells from the in vitro cell cultures are inoculated into the appropriate tubes or microtiter plates. One set of control tubes/plates is immediately counted to determine the number of cells at the start of the experiment. This is the "baseline count" or "Tzero reading". At the end of the experiment (48 hrs later), a second set of control tubes/plates is analyzed to determine the "Control Growth" value. The growth (or death) of cells relative to the initial quantity of cells is used to define the "Percent of Growth."

KM20L2 = assay: Human cancer cell line growth inhibition, Colon KM20L2; format: cell-based; settings: Colon KM20L2, 48 hrs
Source text: as §1, §2, §3, §4, §5, §6

OVCAR-3 = assay: Human cancer cell line growth inhibition, Ovarian OVCAR-3; format: cell-based; settings: Ovarian OVCAR-3, 48 hrs
Source text: as §1, §2, §3, §4, §5, §6

A498 = assay: Human cancer cell line growth inhibition, Renal A498; format: cell-based; settings: Renal A498, 48 hrs
Source text: as §1, §2, §3, §4, §5, §6

SK-MEL-5 = assay: Human cancer cell line growth inhibition, Melanoma SK-MEL-5; format: cell-based; settings: Melanoma SK-MEL-5, 48 hrs
Source text: as §1, §2, §3, §4, §5, §6

PS-388 Mouse Leukemia = assay: PS-388 mouse leukemia cell growth inhibition (ED50); format: cell-based; settings: Mouse Leukemia PS-388
Experimental: as §2, §5, §6

NCI-H460 = assay: Human cancer cell line growth inhibition, Lung-NSC NCI-H460; format: cell-based; settings: Lung-NSC NCI-H460, 48 hrs
Source text: as §1, §2, §3, §4, §5, §6

Human Mammary Xenograph = assay: Dolastatin 10 in vivo, human mammary xenograph; settings: nude mouse, 26 μg/kg
Source text: (§7) The synthesis of potentially useful peptides presents one of the most essential and promising approaches to new types of anticancer and immunosuppressant drugs. The Dolastatins, an unprecedented series of linear and cyclic antineoplastic and/or cytostatic peptides isolated from Indian Ocean sea hare Dolabella auricularia represent excellent leads for synthetic modification. The very productive sea hare Dolabella auricularia has produced a number of structurally distinct peptides with excellent antineoplastic activity. Presently Dolastatin 10, a linear pentapeptide, represents the most important member and is a potentially useful antineoplastic agent. […] Recently the total synthesis and absolute configuration of this structurally unique and biologically active peptide was discovered.

[1] = test system: LOX Human Melanoma Xenograph; assay: Dolastatin 10 in vivo, LOX human melanoma xenograph; settings: nude mouse
Source text: as §7

[2] = test system: OVCAR-3 Human Ovary Xenograph; assay: Dolastatin 10 in vivo, OVCAR-3 human ovary xenograph; settings: OVCAR-3 xenograph, nude mouse, 40 μg/kg
Source text: as §7

Substance	GI-50 (SF-295) [µg/mL]	LC-50 (SF-295) [µg/mL]	TGI (SF-295) [mg/L]	GI-50 (KM20L2) [µg/mL]	LC-50 (KM20L2) [µg/mL]	TGI (KM20L2) [mg/L]	GI-50 (OVCAR-3) [µg/mL]	LC-50 (OVCAR-3) [µg/mL]	TGI (OVCAR-3) [mg/L]	GI-50 (A498) [µg/mL]	LC-50 (A498) [µg/mL]	TGI (A498) [mg/L]	GI-50 (SK-MEL-5) [µg/mL]	LC-50 (SK-MEL-5) [µg/mL]	TGI (SK-MEL-5) [mg/L]	ED-50 (PS-388 Mouse Leukemia) [µg/mL]	GI-50 (NCI-H460) [µg/mL]	LC-50 (NCI-H460) [µg/mL]	TGI (NCI-H460) [mg/L]	also measured
Dov--Val--Dil--Dap--N^ε --Z--Lys--OMe [10a]	> 0.01	> 0.01	> 0.01	> 0.01	> 0.01	> 0.01	0.0069	> 0.01	> 0.01	> 0.01	> 0.01	> 0.01	0.003	> 0.01	> 0.01	> 0.01	> 0.01	> 0.01	> 0.01	–
N^γ,N^γ,N^α --tri--Z--Arg--Val--Dil--Dap--Met--OMe [11c]	0.13	> 1	> 1	0.28	> 1	> 1	0.074	> 1	0.74	0.6	> 1	> 1	0.38	> 1	> 1	0.329	0.25	> 1	0.62	–
N^α,N^ε --di--Z--Lys--Val--Dil--Dap--His--OMe [11a]	0.67	> 1	> 1	0.29	> 1	> 1	0.12	> 1	0.67	> 1	> 1	> 1	0.08	> 1	> 1	> 1	0.27	> 1	> 1	–
Dov--Val--Dil--Dap--His--OMe [10b]	> 0.01	> 0.01	> 0.01	0.00099	> 0.01	> 0.01	0.00071	> 0.01	> 0.01	> 0.01	> 0.01	> 0.01	0.0008	> 0.01	> 0.01	> 0.01	> 0.01	> 0.01	> 0.01	–
Dolastatin 10	–	–	–	–	–	–	–	–	–	–	–	–	–	–	–	–	–	–	–	T/C (Human Mammary Xenograph): Toxic; T/C ([1]; 3.25 μg/kg): 170; cures ([1]; 3.25 μg/kg): 17%; cures ([1]; 6.5 μg/kg): 33%; cures ([1]; 13 μg/kg): 50%; cures ([1]; 26 μg/kg): 67%; T/C ([1]; 52 μg/kg): toxic; T/C [2]: 300
N^γ,N^γ,N^α --tri--Z--Arg--Val--Dil--Dap--N^ε --Z--Lys--OMe [11b]	> 1	> 1	> 1	> 1	> 1	> 1	> 1	> 1	> 1	> 1	> 1	> 1	> 1	> 1	> 1	0.513	> 1	> 1	> 1	–
